# According to patent US20130096159A1, “INHIBITORS OF HUMAN 12-LIPOXYGENASE” (The United States of America, as represented the Secretary …, priority 2010, published 2013):
# Read-outs that look alike come from different tables or passages of the source.
# Columns and labels:
# [1] = mouse liver microsome stability; type: in vitro ADME; settings: liver microsomes, read-out: mouse liver microsome stability (T1/2)
# [2] = aqueous kinetic solubility; type: physicochemical
# [3] = in vivo PK, IP administration in CD1 mice; settings: IP 30 mg/kg
# [4] = biological target: T1, human 5-lipoxygenase (Homo sapiens, UniProt P09917); assay: 5hLO inhibition screen; type: biochemical; settings: Table 2
# T1 sequence (P09917 1-674): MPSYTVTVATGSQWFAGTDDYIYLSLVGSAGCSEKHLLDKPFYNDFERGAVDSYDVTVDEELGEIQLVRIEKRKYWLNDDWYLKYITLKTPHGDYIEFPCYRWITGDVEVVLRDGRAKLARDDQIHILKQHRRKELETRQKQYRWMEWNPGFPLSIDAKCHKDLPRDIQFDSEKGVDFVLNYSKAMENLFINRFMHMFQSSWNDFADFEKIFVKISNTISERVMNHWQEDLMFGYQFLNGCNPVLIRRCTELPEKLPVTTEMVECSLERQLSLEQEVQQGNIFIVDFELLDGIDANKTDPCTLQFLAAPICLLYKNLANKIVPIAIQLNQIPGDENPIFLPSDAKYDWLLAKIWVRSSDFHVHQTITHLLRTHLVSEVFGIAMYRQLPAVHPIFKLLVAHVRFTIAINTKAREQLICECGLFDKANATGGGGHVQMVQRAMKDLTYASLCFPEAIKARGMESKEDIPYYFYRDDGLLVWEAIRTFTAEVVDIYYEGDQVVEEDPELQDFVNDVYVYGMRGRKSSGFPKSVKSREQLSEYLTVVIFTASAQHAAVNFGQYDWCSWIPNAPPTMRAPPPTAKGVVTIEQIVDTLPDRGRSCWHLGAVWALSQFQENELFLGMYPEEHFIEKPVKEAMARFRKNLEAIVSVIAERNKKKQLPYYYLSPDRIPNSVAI
# [5] = PBS buffer stability; type: physicochemical
# [6] = system: Caco-2; assay: Caco-2 permeability; type: in vitro ADME
# [7] = biological target: T2, human 12-lipoxygenase (Homo sapiens, UniProt P18054); assay: human 12-lipoxygenase inhibition (12hLO) assay, absorbance at 234 nm; type: biochemical
# T2 sequence (P18054 1-663): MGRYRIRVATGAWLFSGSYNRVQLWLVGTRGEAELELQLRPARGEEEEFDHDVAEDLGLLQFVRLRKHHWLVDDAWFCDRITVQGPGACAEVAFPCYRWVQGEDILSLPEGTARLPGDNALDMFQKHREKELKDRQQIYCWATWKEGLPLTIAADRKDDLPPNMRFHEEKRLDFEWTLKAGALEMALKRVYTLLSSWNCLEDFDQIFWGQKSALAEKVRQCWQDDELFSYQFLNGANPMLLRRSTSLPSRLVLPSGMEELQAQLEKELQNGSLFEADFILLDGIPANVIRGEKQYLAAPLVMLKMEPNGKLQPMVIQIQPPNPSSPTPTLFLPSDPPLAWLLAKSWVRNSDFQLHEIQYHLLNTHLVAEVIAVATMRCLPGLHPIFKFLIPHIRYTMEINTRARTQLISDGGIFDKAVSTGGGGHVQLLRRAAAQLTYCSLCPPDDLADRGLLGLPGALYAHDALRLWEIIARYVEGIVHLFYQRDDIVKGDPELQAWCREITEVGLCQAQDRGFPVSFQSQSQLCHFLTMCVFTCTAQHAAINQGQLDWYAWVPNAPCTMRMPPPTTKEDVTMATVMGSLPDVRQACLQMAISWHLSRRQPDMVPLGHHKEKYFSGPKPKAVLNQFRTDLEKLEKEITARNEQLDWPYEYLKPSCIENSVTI
# [8] = mouse plasma stability; type: in vitro ADME
# [9] = biological target: T3, human 15-lipoxygenase-2 (Homo sapiens, UniProt O15296); assay: 15hLO-2 inhibition screen; type: biochemical; settings: Table 2
# T3 sequence (O15296 1-676): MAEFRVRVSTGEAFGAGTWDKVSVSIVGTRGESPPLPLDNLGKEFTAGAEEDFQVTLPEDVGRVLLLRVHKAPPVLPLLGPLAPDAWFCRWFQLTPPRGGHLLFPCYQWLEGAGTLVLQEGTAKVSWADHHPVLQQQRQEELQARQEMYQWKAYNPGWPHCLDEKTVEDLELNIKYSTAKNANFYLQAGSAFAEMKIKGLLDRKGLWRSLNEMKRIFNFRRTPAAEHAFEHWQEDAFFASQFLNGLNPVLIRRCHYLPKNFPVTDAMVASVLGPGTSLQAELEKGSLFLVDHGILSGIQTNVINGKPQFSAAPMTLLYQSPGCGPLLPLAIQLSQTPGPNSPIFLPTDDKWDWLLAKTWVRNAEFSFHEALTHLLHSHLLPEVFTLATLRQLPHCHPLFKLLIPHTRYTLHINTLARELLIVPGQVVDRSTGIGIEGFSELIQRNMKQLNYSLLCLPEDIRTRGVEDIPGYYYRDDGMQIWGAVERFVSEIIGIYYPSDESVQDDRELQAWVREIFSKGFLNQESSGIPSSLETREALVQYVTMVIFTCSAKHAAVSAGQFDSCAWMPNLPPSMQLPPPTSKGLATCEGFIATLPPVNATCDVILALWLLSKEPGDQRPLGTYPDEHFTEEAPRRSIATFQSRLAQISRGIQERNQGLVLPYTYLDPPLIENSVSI
# [10] = system: Human islets; assay: gene expression in cytokine-stimulated human islets, Taqman real time PCR; type: cell-based; settings: TNF-α
# Method: Human islets were incubated for 22 hours following stimulation with the inflammatory cytokines IFN-γ, TNF-α, and IL-1-β alone or in the presence of compound 1 or compound 9. Control islets were incubated for 22 hours in the absence of inflammatory cytokines or compounds. Following the incubation, gene expression for 12-LO, 15-LO, 5-LO, IL-12p40, and IFN-γ were determined using Taqman real time PCR.
# [11] = biological target: T4, recombinant human cPLA2 (Homo sapiens, UniProt P47712); assay: cPLA2 enzymatic activity assay; type: biochemical; settings: 5 min of incubation, FIG. 8
# T4 sequence (P47712 1-749): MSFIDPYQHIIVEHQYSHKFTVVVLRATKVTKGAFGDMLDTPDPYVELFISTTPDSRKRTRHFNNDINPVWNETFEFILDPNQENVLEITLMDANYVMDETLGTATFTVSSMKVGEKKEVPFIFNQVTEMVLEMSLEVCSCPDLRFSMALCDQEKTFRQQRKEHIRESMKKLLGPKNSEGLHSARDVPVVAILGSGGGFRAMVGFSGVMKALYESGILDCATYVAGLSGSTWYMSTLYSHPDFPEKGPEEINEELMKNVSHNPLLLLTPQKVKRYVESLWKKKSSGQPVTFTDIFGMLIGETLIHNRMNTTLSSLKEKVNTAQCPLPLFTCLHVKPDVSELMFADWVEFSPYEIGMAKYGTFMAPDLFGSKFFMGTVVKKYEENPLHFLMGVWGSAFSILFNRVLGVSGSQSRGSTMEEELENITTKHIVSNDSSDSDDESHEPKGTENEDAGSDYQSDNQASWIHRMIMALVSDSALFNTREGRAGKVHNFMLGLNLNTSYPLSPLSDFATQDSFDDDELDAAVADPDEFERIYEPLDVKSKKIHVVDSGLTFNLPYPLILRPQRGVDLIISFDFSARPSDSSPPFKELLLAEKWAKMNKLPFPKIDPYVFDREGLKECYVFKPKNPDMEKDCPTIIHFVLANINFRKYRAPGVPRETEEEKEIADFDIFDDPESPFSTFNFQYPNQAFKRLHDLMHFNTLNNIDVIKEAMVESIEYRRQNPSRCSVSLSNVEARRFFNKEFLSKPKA
# Method: A., et al., Biochemistry, 2011, 50: 1731-1738 with the following differences. The inhibitors in solution in DMSO were added at a final concentration of 50 μM right before the recombinant enzyme was added to initiate the reaction. After 5 min of incubation, the products of reaction were analyzed, and the results depicted in FIG. 8.
# [12] = relative to control islets, IFN-γ, IL-1-β stimulation, 22 hours
structure (smiles),measurement,setting,value
"CC(=O)NC(c1cccs1)c1cc(Br)c2cccnc2c1O (single isomer, unassigned) [Compound 36, N-((5-bromo-8-hydroxyquinolin-7-yl)(thiophen-2-yl)methyl)acetamide]",half-life,[1],< 10 min
same,aqueous kinetic solubility (in words),[2],acceptable
same,crossing of the blood-brain barrier,[3],does not efficiently cross the blood-brain barrier
same,t1/2 (h) (brain),[3]; brain,1.7 h
same,t1/2 (h) (plasma),[3]; plasma,3.5 h
same,tmax (h) [plasma],[3]; plasma,0.25 h
same,Tmax,"[3]; mouse, brain",30 min
same,Kp at 24 h,"[3]; mouse, brain/plasma, average [b/p] ratio over 8 time points (24 h period)",0.01
same,IC50,[4],> 250 µM
same,stability in PBS buffer (in words),[5],excellent
same,PBS-pH 7.4 stability: % remaining after 48 h,"[5]; PBS pH 7.4, 48 h",100%
same,cell permeability (in words),[6],good
same,Caco-2 (Papp 10^−6 m/s @ pH 7.4),[6]; pH 7.4,8.8 10^−6 m/s
same,times more potent as an inhibitor of 12-lipoxygenase than the dextrorotatory enantiomer,[7]; levorotatory vs dextrorotatory enantiomer,more than 58 times
same,stability in mouse plasma (in words),[8],excellent
"CCC(=O)NC(c1cccs1)c1ccc2cccnc2c1O (stereo not shown) [Compound 6, N-((8-hydroxyquinolin-7-yl)(thiophen-2-yl)methyl)propionamide]",IC50,[9],> 150 µM
same,IC50,[4],> 150 µM
same,"selectivity for inhibition of human 12-lipoxygenase as compared with human 5-lipoxygenase, 15-lipoxygenase-1 and 15-lipoxygenase-2",[7],exhibited selectivity
same,IC50,"[7]; Table 2, read-out: IC50 (μM) 12hLO",3.4 µM
"CCC(=O)NC(c1ccco1)c1cc(Cl)c2cccnc2c1O (stereo not shown) [Compound 9, N-((5-chloro-8-hydroxyquinolin-7-yl)(furan-2-yl)methyl)propionamide]",IC50,[9],> 150 µM
same,reduction in IFN-γ expression,"[10]; induced by IFN-γ, IL-1-β",4 fold
same,reduction in IL-12p40 mRNA expression,"[10]; induced by IFN-γ, IL-1-β",40 fold
same,Change in Gene Expression 5-LO,[10]; [12],1
same,Change in Gene Expression 12-LO,[10]; [12],12
same,Change in Gene Expression 15-LO,[10]; [12],4
same,Change in Gene Expression IFN-γ,[10]; [12],4
same,Change in Gene Expression IL-12p40,[10]; [12],3
same,IC50,[4],> 150 µM
same,"selectivity for inhibition of human 12-lipoxygenase as compared with human 5-lipoxygenase, 15-lipoxygenase-1 and 15-lipoxygenase-2",[7],exhibited selectivity
same,IC50,"[7]; 12hLO Inhibition, Table 1, read-out: IC50 (μM) [± SD μM]",1 µM
"O=c1cc(-c2ccccc2)oc2cc(O)c(O)c(O)c12 [baicalein, reference compound]",inhibition at 50 µM,[11],~60%
